Source: patent US6579541B2, “Oxidative fluorinator compounds as antimicrobials” (priority 2000, dated 2003)

Assays:
bacterial colonies = experiment: Industrial cooling tower water, standard immersion test kit; details: about 1 ppm CoF3 with about 10 ppm KPS, about 1,000 gallons of water, after 24 hours
From the text: An industrial cooling tower containing about 1,000 gallons of water tested positive for a high bacterial colony count using a standard immersion test kit.

coliform = experiment: AOAC culture test of contaminated water, coliform counts; assay type: cell-based; details: about 2 PPM XeF2 with about 20 PPM KPS, pH about 7, 37.4 cfu/mL
Protocol: (§1) These and other aspects of the present invention may be more fully understood with reference to the following examples, which are merely illustrative of the preferred embodiments of the present invention, and are not to be construed as limiting the invention, the scope of which is defined by the appended claims. Unless otherwise indicated, antimicrobial evaluations of the various fluorinator compounds tested were performed versus control samples in cultures in accordance with the protocol as set forth in AOAC (15th) 1990:965:13 at colony densities indicated in the examples.
Contaminated water was prepared and measured to have AOAC coliform counts averaging 37.4 colony forming units per milliliter (cfu/mL). The water was treated by first adding crystal potassium monopersulfate (KPS) stabilizer, commercially available from E.I. DuPont de Nemours & Co. Corp. as OXONE®, and xenon difluoride (XeF2). The concentration in solution of the KPS and XeF2 was about 20 PPM and about 2 PPM respectively, and the pH of the treated solution was about 7.

salmonella = experiment: AOAC culture test of aqueous solutions with salmonella contamination; assay type: cell-based; details: ten minutes exposure
Protocol: Unless otherwise indicated, antimicrobial evaluations of the various fluorinator compounds tested were performed versus control samples in cultures in accordance with the protocol as set forth in AOAC (15th) 1990:965:13 at colony densities indicated in the examples.
Aqueous solutions were prepared having a salmonella contamination at a cell density of about 500,000 cfu/mL. Two solutions of XeF2 were prepared: one as a 1% solution in 85% phosphoric acid stabilizer, and a second solution containing no stabilizer. The materials were cultured versus controls at concentrations of about 2 ppm and about 4 ppm XeF2 and at a pH of about 9.

E. Coli ATCC 81377 = experiment: Hand soap base culture test; assay type: cell-based; details: about 5 ppm XeF2 in hand soap base, about 320,000 cfu/mL, 30 seconds exposure
Protocol: as §1
(§2) A hand soap base was prepared comprising an aqueous mixture of coconut fatty acid amide and sodium lauryl sulfate surfactants. XeF2 was incorporated into the hand soap base at a level of about 5 ppm and four separate cultures containing various microbes at a level of about 320,000 cfu/mL were evaluated.

[1] = tested on: Enterococcus Faecalis (Vancomycin resistance); experiment: Hand soap base culture test; assay type: cell-based; details: about 5 ppm XeF2 in hand soap base, about 320,000 cfu/mL, 30 seconds exposure
Protocol: as §1, §2

Salmonella ATC 14 = experiment: Hand soap base culture test; assay type: cell-based; details: about 5 ppm XeF2 in hand soap base, about 320,000 cfu/mL, 30 seconds exposure
Protocol: as §1, §2

[2] = tested on: Staph Aureus (Methicillin resistance); experiment: Hand soap base culture test; assay type: cell-based; details: about 5 ppm XeF2 in hand soap base, about 320,000 cfu/mL, 30 seconds exposure
Protocol: as §1, §2

| SMILES | immersion kit test result on cooling tower water (bacterial colonies) | coliform inhibited (coliform; 5 minutes exposure) | coliform inhibited (coliform; 10 minutes exposure) | inhibition (salmonella; about 2 ppm XeF2, pH about 9, about 500,000 cfu/mL) | inhibition (salmonella; about 4 ppm XeF2, pH about 9, about 500,000 cfu/mL) | Inhibition (%) (E. Coli ATCC 81377) | Inhibition (%) [1] [%] | Inhibition (%) (Salmonella ATC 14) | Inhibition (%) [2] [%] |
| --- | --- | --- | --- | --- | --- | --- | --- | --- | --- |
| [F][Co]([F])[F] [CoF3, cobalt trifluoride] | complete destruction of bacterial colonies | – | – | – | – | – | – | – | – |
| F[Xe]F [XeF2, xenon difluoride] | – | about 73% | about 77% | about 13.2% | about 96.4% | 99.9 | 99.9 | 99.9 | 99.5 |
